“And” between values parts separate entries of the source, which are not always exact repeats. Equal values may be shown once.
Assays:
[1] = refractive index (other wavelength) (dimensionless); xn = mol fraction of the nth substance listed; details: 101 kPa, Liquid, Wavelength=632.8 nm, Standard Abbe refractometry
[2] = heat capacity at constant pressure per volume; xn = mol fraction of the nth substance listed; details: 101 kPa, Liquid, Large sample (1 g) DSC, x1 = 0.497

N#Cc1ccccc1 [benzonitrile] + CCCCCCCCC
[1]
Details | refractive index
278.24 K, x1 = 1 | 1.5324
279.25 K, x1 = 1 | 1.5319
281.33 K, x1 = 1 | 1.5308
282.96 K, x1 = 1 | 1.5301
284.3 K, x1 = 1 | 1.5294
285.4 K, x1 = 0.0945 | 1.4145
285.4 K, x1 = 0.2042 | 1.4234
285.4 K, x1 = 0.2947 | 1.4313
285.4 K, x1 = 0.3866 | 1.4402
285.4 K, x1 = 0.4969 | 1.452
285.4 K, x1 = 0.5967 | 1.4642
285.4 K, x1 = 0.6844 | 1.4759
285.4 K, x1 = 0.7992 | 1.4932
285.4 K, x1 = 0.865 | 1.504
285.43 K, x1 = 1 | 1.5288

[2]
Details | heat capacity
278.51 K | 1795700 J/K/m3
279.06 K | 1803600 J/K/m3
279.55 K | 1808700 J/K/m3
280 K | 1811600 J/K/m3
280.41 K | 1816400 J/K/m3
280.77 K | 1824500 J/K/m3
281.11 K | 1829200 J/K/m3
281.41 K | 1830500 J/K/m3
281.68 K | 1829700 J/K/m3
281.93 K | 1835700 J/K/m3
282.15 K | 1841800 J/K/m3
282.35 K | 1845300 J/K/m3
282.53 K | 1847600 J/K/m3
282.7 K | 1849700 J/K/m3
282.85 K | 1856600 J/K/m3
282.98 K | 1859600 J/K/m3
283.1 K | 1862200 J/K/m3
283.21 K | 1866700 J/K/m3
283.31 K | 1869700 J/K/m3
283.4 K | 1868700 J/K/m3
283.49 K | 1873100 J/K/m3
283.56 K | 1868300 J/K/m3
283.69 K | 1880300 J/K/m3
283.88 K | 1913600 J/K/m3
283.95 K | 1908800 J/K/m3
284.03 K | 1934300 J/K/m3
284.09 K | 1950500 J/K/m3
284.11 K | 1960300 J/K/m3
284.12 K | 1970200 J/K/m3
284.13 K | 1977600 J/K/m3
284.15 K | 1985800 J/K/m3
284.16 K | 1998500 J/K/m3
284.18 K | 2005300 J/K/m3
284.19 K | 2006000 J/K/m3
284.2 K | 2015800 J/K/m3
284.21 K | 2022500 J/K/m3
284.22 K | 2037100 J/K/m3
284.23 K | 2046300 J/K/m3
284.24 K | 2060600 J/K/m3
284.25 K | 2071500 J/K/m3
284.26 K | 2047100 J/K/m3 [middle of 6 runs]
284.27 K | 1937800 J/K/m3 [middle of 5 runs]
284.28 K | 1815400 J/K/m3 and 1840700 J/K/m3
284.29 K | 1794400 J/K/m3
284.31 K | 1776700 J/K/m3
284.33 K | 1765400 J/K/m3
284.36 K | 1750800 J/K/m3
284.42 K | 1731200 J/K/m3
284.5 K | 1715800 J/K/m3
284.61 K | 1703600 J/K/m3
284.69 K | 1698600 J/K/m3
284.79 K | 1693000 J/K/m3
284.9 K | 1688700 J/K/m3
284.97 K | 1686600 J/K/m3
285.12 K | 1680400 J/K/m3
285.21 K | 1677900 J/K/m3
285.31 K | 1676100 J/K/m3
285.43 K | 1674300 J/K/m3
285.55 K | 1671100 J/K/m3
285.68 K | 1668100 J/K/m3
285.83 K | 1666100 J/K/m3
286 K | 1665000 J/K/m3
286.18 K | 1662900 J/K/m3
286.38 K | 1659800 J/K/m3
286.6 K | 1659100 J/K/m3
286.85 K | 1655600 J/K/m3
287.12 K | 1655500 J/K/m3
287.42 K | 1652700 J/K/m3
287.75 K | 1650500 J/K/m3
288.12 K | 1649500 J/K/m3
288.53 K | 1647700 J/K/m3
288.97 K | 1645800 J/K/m3
289.51 K | 1644500 J/K/m3
290.01 K | 1643400 J/K/m3
290.61 K | 1641800 J/K/m3
291.29 K | 1641000 J/K/m3
292.03 K | 1639400 J/K/m3
292.42 K | 1639400 J/K/m3
292.84 K | 1638700 J/K/m3
293.28 K | 1638100 J/K/m3
293.74 K | 1637800 J/K/m3
294.24 K | 1637400 J/K/m3
294.74 K | 1636900 J/K/m3
295.28 K | 1636500 J/K/m3
295.85 K | 1636400 J/K/m3
296.45 K | 1635800 J/K/m3
297.07 K | 1635800 J/K/m3
297.73 K | 1635500 J/K/m3
298.41 K | 1635100 J/K/m3
299.14 K | 1635100 J/K/m3
299.89 K | 1634900 J/K/m3
300.7 K | 1634900 J/K/m3
301.55 K | 1634800 J/K/m3
302.43 K | 1635000 J/K/m3
303.36 K | 1635100 J/K/m3
304.34 K | 1635200 J/K/m3
305.38 K | 1635400 J/K/m3
306.45 K | 1635600 J/K/m3
307.59 K | 1635800 J/K/m3
308.79 K | 1636100 J/K/m3
310.05 K | 1636600 J/K/m3
311.36 K | 1637200 J/K/m3
312.75 K | 1637800 J/K/m3
314.12 K | 1638500 J/K/m3

From the NIST ThermoML archive (doi:10.1016/j.jct.2010.02.009)
